The values below come from US8048879B2, “Substituted 4,5,6,7-tetrahydro-isoxazolo[4,5-c]pyridine compounds and use thereof for producing medicaments” (Gruenenthal GmbH, priority 2005, dated 2011).

For experiment [1], the target named is T1, 5-HT transporter (Rattus norvegicus, UniProt P31652).
T1 construct: from tissue; host or cells: rat brain (medulla and pons), synaptosomes, P2 fraction
In words: 5-HT uptake inhibition, synaptosomes from rat brain (medulla and pons). It counts as biochemical. Summed up: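 Freshly isolated rat brain synaptosomes (P2 fraction): hypothalamus for NA uptake, medulla/pons for 5-HT uptake. Uptake of [3H]-NA (7.5 min) or [3H]-5-HT (5 min) at room temperature under O2, stopped by filtration over GF/B. Retained radioactivity counted by scintillation.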

In experiment [2] the target is T2, NA transporter (Rattus norvegicus, UniProt Q9WTR4).
T2 construct: from tissue; host or cells: rat brain (hypothalamus), synaptosomes, P2 fraction
T2 sequence (Q9WTR4 1-597): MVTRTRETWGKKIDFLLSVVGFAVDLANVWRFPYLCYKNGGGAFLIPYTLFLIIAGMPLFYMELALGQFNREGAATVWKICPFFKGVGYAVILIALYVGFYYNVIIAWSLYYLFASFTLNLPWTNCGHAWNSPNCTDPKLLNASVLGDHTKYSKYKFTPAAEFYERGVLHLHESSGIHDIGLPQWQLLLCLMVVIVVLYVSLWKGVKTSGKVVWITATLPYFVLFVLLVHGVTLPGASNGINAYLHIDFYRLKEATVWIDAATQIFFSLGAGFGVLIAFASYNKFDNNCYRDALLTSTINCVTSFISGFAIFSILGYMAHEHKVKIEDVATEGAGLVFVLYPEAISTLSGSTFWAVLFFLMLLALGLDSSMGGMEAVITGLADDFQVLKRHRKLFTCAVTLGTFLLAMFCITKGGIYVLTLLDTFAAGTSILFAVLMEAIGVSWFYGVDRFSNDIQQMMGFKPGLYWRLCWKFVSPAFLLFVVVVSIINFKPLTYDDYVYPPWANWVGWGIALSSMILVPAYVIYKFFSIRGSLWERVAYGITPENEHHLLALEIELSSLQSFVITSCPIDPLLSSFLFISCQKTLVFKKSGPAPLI
Kind of experiment: Noradrenalin (NA) uptake inhibition, synaptosomes from rat brain (hypothalamus). Type of experiment: biochemical. An excerpt: b) Method for Determining Noradrenalin and 5-HT Uptake Inhibition:
Synaptosomes from rat brain regions are freshly isolated for in vitro studies, as described in the publication “The isolation of nerve endings from brain” by E. G. Gray and V. P. Whittaker, J. Anatomy 96, pages 79-88, 1962. The corresponding literature description is hereby introduced as a reference and is deemed to be part of the disclosure.
The tissue (hypothalamus for the determination of noradrenalin uptake inhibition and medulla and pons for the determination of 5-HT uptake inhibition) is homogenised in ice-cooled 0.32 M sucrose (100 mg of tissue/1 mL) in a glass homogeniser with Teflon pestle using five complete up and down strokes at 840 revolutions/minute.
The homogenate is centrifuged at 4° C. for 10 minutes at 1000 g. After subsequent centrifugation at 17000 g for 55 minutes, the synaptosomes (P2 fraction) are obtained, which are resuspended in 0.32 M […] (0.5 mL/100 mg of original weight).
The particular uptake is measured in a 96-well microtitre plate. The volume is 250 μL and the incubation proceeds at room temperature (approx. 20-25° C.) under an O2 atmosphere.
The incubation time is 7.5 minutes for [^3H]-NA and 5 minutes for [^3H]-5-HT. The 96 samples are then filtered through a Unifilter GF/B® microtitre plate (Packard) and washed with 200 mL of incubated buffer using a “Brabdel MPXRI-96T Cell-Harvester”. The Unifilter GF/B plate is dried for 1 hour at 55° C. The plate is then sealed with a Back Seal® (Packard) and 35 μL of scintillation fluid are added per well (Ultima Gold®, Packard). After sealing with a top Seal® (Packard) and establishing an equilibrium (around 5 hours), radioactivity is determined in a “Trilux 1450 Microbeta” (Wallac).
The quantity of protein used in the above determination corresponds to the values known from the literature, as for example described in “Protein measurement with the folin phenol reagent”, Lowry et al., J. Biol. Chem., 193, 265-275, 1951.
A detailed description of the method may additionally be found in the literature, for example in M. Ch. Frink, H.-H. Hennies, W. Engelberger, M. Haurand and B. Wilffert (1996) Arzneim.-Forsch./Drug Res. 46 (III), 11, 1029-1036.
The following characteristics were determined for the NA or 5-HT transporter: […]

A word on the inhibition: it is the drop in the measured response relative to a control, in per cent. Read a high inhibition as a response far below the control.

T1 sequence (P31652 whole entry): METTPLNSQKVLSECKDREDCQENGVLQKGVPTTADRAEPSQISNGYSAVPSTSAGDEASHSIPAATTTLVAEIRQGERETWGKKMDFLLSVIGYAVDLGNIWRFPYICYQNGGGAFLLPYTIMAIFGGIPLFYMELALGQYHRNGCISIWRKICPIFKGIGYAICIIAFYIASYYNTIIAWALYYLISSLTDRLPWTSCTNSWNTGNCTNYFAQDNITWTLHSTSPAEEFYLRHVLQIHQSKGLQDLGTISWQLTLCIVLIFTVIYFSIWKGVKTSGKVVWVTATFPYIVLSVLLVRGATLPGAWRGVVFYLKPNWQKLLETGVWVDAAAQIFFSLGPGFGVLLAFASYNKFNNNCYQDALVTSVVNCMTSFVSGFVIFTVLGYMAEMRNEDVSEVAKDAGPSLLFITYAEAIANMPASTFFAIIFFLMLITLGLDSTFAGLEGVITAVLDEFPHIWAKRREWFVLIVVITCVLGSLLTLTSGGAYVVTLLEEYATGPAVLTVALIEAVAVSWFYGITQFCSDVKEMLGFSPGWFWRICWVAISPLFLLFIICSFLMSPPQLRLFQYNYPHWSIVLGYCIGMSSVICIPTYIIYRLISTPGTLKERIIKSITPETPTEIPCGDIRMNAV

On to `CCOc1ccc(NC(=O)N2CCc3onc(C(=O)Nc4ccccc4)c3C2)cc1` [Example 13, 6,7-dihydro-4H-isoxazolo[4,5-c]pyridine-3,5-dicarboxylic acid 5-[(4-ethoxy-phenyl) amide] 3-phenyl amide], for which, in experiment [1], the “5-HT uptake (rat), 10 μM, % inhibition” value is listed as 48%. The “NA Uptake (rat), 10 μM, % inhibition” value in experiment [2] came out at 51%.

In the case of `Cc1ccc(NC(=O)c2noc3c2CN(S(=O)(=O)c2ccc(C)cc2)CC3)cc1` [Example 152, N-p-tolyl-5-tosyl-4,5,6,7-tetrahydroisoxazolo[4,5-c]pyridine-3-carboxamide], the figures for the inhibition at 10 µM in experiment [1] and in experiment [2] were 29% and 24%, respectively.

In the case of `O=C(O)CC1(CC(=O)N2CCc3onc(C(=O)Nc4ccccc4)c3C2)CCCC1` [Example 28, {1-[2-oxo-2-(3-phenylcarbamoyl-6,7-dihydro-4H-isoxazolo[4,5-c]pyridin-5-yl)-ethyl]-cyclopentyl}acetic acid], the inhibition at 10 µM amounted to 55% in experiment [1] and 44% in experiment [2].

In the case of `O=C(c1noc2c1CN(S(=O)(=O)c1ccc3ccccc3c1)CC2)N1CCC(CCN2CCCC2)CC1` [Example 148, (5-(naphthalen-2-ylsulfonyl)-4,5,6,7-tetrahydroisoxazolo[4,5-c]pyridin-3-yl)(4-(2-(pyrrolidin-1-yl)ethyl)piperidin-1-yl)methanone], the values for the inhibition at 10 µM in experiment [1] and in experiment [2] were 67% and 49%, respectively.

Take `O=C(NCCc1ccccc1)c1noc2c1CN(C(=O)Nc1cccc(F)c1)CC2` [Example 8, 6,7-dihydro-4H-isoxazolo[4,5-c]pyridine-3,5-dicarboxylic acid 5-[(3-fluorophenyl) amide] 3-(phenethyl amide)]: in experiment [1], the “5-HT uptake (rat), 10 μM, % inhibition” value came out at 54%. The “NA Uptake (rat), 10 μM, % inhibition” value in experiment [2] is reported as 66%.

As for `COc1ccc(CNC(=O)c2noc3c2CN(S(=O)(=O)c2ccccc2)CC3)cc1OC` [Example 47, 5-benzenesulfonyl-4,5,6,7-tetrahydro-isoxazolo[4,5-c]pyridine-3-carboxylic acid 3,4-dimethoxy-benzyl amide], the inhibition at 10 µM in experiment [1] stood at 68%; in experiment [2] it was 67%.

As to `O=C(NC1CCN(Cc2ccc3ccccc3c2)C1)c1noc2c1CN(S(=O)(=O)c1ccccc1)CC2` (stereo not shown) [Example 33, 5-benzenesulfonyl-4,5,6,7-tetrahydro-isoxazolo[4,5-c]pyridine-3-carboxylic acid (1-naphthalen-2-ylmethyl-pyrrolidin-3-yl) amide], the inhibition at 10 µM in experiment [1] was 74%; in experiment [2], 88%.

Consider `O=C(Nc1ccccc1)c1noc2c1CN(C(=O)c1ccccc1F)CC2` [Example 156, 5-(2-fluorobenzoyl)-N-phenyl-4,5,6,7-tetrahydroisoxazolo[4,5-c]pyridine-3-carboxamide], for which the figures for the inhibition at 10 µM in experiment [1] and in experiment [2] were 10% and 23%, respectively.

As for `Cl.O=C(c1noc2c1CN(S(=O)(=O)c1cccc3ccccc13)CC2)N1CCC(CCN2CCCC2)CC1` [Example 149, (5-(Naphthalene-1-ylsulfonyl)-4,5,6,7-tetrahydroisoxazolo[4,5-c]pyridin-3-yl)(4-(2-(pyrrolidin-1-yl)ethyl)piperidin-1-yl)methanone hydrochloride], the inhibition at 10 µM in experiment [1] is 68%; in experiment [2] it was 54%.

Turning to `O=C(c1noc2c1CN(S(=O)(=O)c1ccc(Cl)c(Cl)c1)CC2)N1CCC(CCN2CCCC2)CC1` [Example 147, (5-(3,4-dichlorophenylsulfonyl)-4,5,6,7-tetrahydroisoxazolo[4,5-c]pyridin-3-yl)(4-(2-(pyrrolidin-1-yl)ethyl)piperidin-1-yl)methanone], the inhibition at 10 µM in experiment [1] was 35%; in experiment [2], 34%.

For `O=C(c1noc2c1CN(S(=O)(=O)c1cc(Cl)ccc1Cl)CC2)N(CCc1ccccc1)Cc1ccccc1` [Example 59, 5-(2,5-dichloro-benzenesulfonyl)-4,5,6,7-tetrahydro-isoxazolo[4,5-c]pyridine-3-carboxylic acid benzyl-phenethyl amide], the inhibition at 10 µM in experiment [1] was found to be 71%; in experiment [2], 79%.
